We go through 21 compounds from patent US20250136555A1 (HARBIN MEDISAN PHARMACEUTICAL CO., LTD., priority 2022, published 2025).

pEC50: −log10 of the molar value. Like-named read-outs stand apart in the source and are kept apart here. Bounds are passed on as bounds.

Holding throughout (type): cell-based
Assay [1] deals with T1, PPARδ (Homo sapiens, UniProt Q03181).
T1 construct: expressed in transfected cells; host or cells: COS-7
T1 sequence (Q03181 211-439 limits assumed): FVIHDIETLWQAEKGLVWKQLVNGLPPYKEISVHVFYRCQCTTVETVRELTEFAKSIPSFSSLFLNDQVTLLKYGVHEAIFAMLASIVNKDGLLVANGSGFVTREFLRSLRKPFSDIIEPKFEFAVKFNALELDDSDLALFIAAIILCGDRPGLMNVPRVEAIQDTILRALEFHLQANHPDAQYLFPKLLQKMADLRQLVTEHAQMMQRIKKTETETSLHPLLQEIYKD
Put plainly: GAL4 hybrid reporter gene method, PPARδ agonistic activity. In general terms: Reporter assays use an easily measured gene product as a stand-in for the process of interest.
Experimental: (§1) Cos-7 cells (African green monkey kidney fibroblasts, commonly used tool cells) were cultured in a 10-cm cell culture dish with a DMEM complete medium containing 10% fetal bovine serum. When growing at a density of about 70%, the cells were ready for transfection. […] The working solution described above was then combined with 8 mL of the DMEM complete medium, and the mixture was added to the cell culture dish for cell transfection. After 4 h of transfection, the cells were digested, resuspended, and seeded into a 96-well plate at 25,000 cells/well. […] 10 μL of a reporter gene detection solution (purchased from Shanghai Beyotime Biological Tech. Co., Ltd.) was added. After the resulting solution was mixed and reacted, biological fluorescence was detected by using a multifunctional microplate reader, and corresponding half maximal effective concentration (EC50) values were calculated according to the detection values. […] Transfection working solutions for different nuclear receptors were prepared and added into COS-7 cells. The preparation method for the transfection working solution was as follows: the constructed pBIND-Gal4-PPARα (LBD) (or pBIND-Gal4-PPARδ (LBD) plasmid or pBIND-Gal4-PPARγ (LBD) plasmid or pBIND-Gal4-RARα (LBD) plasmid or pBIND-Gal4-RARγ (LBD) plasmid or pBIND-Gal4-RARβ (LBD) plasmid or pBIND-Gal4-RORα (LBD) plasmid or pBIND-Gal4-RORγ (LBD) plasmid or pBIND-Gal4-RORβ (LBD) plasmid or pBIND-Gal4-FXR (LBD) plasmid or pBIND-Gal4-RXRα.

The target of assay [2] is T2, PPARα (Homo sapiens, UniProt Q07869).
T2 construct: expressed in transfected cells; host or cells: COS-7
T2 sequence (Q07869 239-466 limits assumed): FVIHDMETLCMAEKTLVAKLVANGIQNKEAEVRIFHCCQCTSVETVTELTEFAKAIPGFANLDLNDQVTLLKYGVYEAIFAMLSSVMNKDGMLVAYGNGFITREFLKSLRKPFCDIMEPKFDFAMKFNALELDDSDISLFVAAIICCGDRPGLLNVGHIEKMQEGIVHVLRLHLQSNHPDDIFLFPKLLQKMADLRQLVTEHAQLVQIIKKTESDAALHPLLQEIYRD
As to the kind of experiment: GAL4 hybrid reporter gene method, PPARα agonistic activity. The settings on record: Cos-7 cells, Gal4-PPARα (LBD); GW7647 10 nM = 100%; 16 h.

For assay [3], the target named is T3, PPARγ (Homo sapiens, UniProt P37231).
T3 construct: expressed in transfected cells; host or cells: COS-7
T3 sequence (P37231 238-503 limits assumed): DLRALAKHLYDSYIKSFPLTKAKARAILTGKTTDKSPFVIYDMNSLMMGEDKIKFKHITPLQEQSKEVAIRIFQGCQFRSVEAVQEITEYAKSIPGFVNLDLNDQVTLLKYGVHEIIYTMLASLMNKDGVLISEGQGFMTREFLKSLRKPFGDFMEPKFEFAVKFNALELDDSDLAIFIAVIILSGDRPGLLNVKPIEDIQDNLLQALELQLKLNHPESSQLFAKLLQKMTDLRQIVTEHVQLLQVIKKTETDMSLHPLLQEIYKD
As to the kind of experiment: GAL4 hybrid reporter gene method, PPARγ agonistic activity.
Experimental: as §1

The mark [4] stands for this setting: Cos-7 cells, Gal4-PPARδ (LBD), GW501516 10 nM = 100%, 16 h.
The mark [5] stands for this setting: Cos-7 cells, Gal4-PPARγ (LBD), Rosiglitazone 1 μM = 100%, 16 h.

As usually defined, the pEC50 is the EC50 on a negative log10 scale, so that one unit is a factor of ten. Read a low pEC50 as a large EC50. Regarding `Cc1cc(N2CC(=O)N(Cc3cc(C)c(OC(C)(C)C(=O)O)c(C)c3)C2=O)ccc1C(F)(F)F` [Compound 29, 2-(2,6-Dimethyl-4-((3-(3-methyl-4-(trifluoromethyl)phenyl)-2,5-dioxoimidazolin-1-yl)methyl)phenoxy)-2-methylpropionic Acid], the figures for the pEC50 in assay [1], in assay [2] and in assay [3] were 9.00, 8.85 and 6.13, respectively. The “PPARδ EC50 (nM)” value in assay [1] (setting [4]) was “low nanomolar levels”. The “PPARα EC50 (nM)” value in assay [2] was “low nanomolar levels”.

Turning to `Cc1cc(CN2C(=O)CN(c3ccc(F)c(Cl)c3)C2=O)cc(C)c1OC(C)(C)C(=O)O` [Compound 105], the values for the pEC50 in assay [1], in assay [2] and in assay [3] were 7.39, 7.66 and 6.78, respectively.

On to `Cc1cc(CN2C(=O)CN(c3ccc(C(F)(F)F)cc3)C2=O)ccc1OC(C)(C)C(=O)O` [Compound 57, 2-(4-((2,5-Dioxo-3-(4-(trifluoromethyl)phenyl)imidazolin-1-yl)methyl)-2-(methyl)phenoxy)-2-methylpropionic Acid], for which the pEC50 was 7.72 in assay [1] (setting [4]), 7.33 in assay [2] and 5.57 in assay [3] (setting [5]).

For the compound `Cc1cc(CN2C(=O)CN(c3ccc(F)cc3)C2=O)cc(C)c1OC(C)(C)C(=O)O` [Compound 25, 2-(4-((3-(4-Fluorophenyl)-2,5-dioxoimidazolin-1-yl)methyl)-2,6-dimethylphenoxy)-2-methylpropionic Acid], the pEC50 is 7.14 in assay [1] (setting [4]), 7.00 in assay [2] and 5.44 in assay [3] (setting [5]).

As for `Cc1cc(CCCN2C(=O)CN(c3ccc(C(F)(F)F)cc3)C2=O)cc(C)c1OC(C)(C)C(=O)O` [Compound 89, 2-(4-(3-(2,5-Dioxo-3-(4-(trifluoromethyl)phenyl)imidazolidin-1-yl)propyl)-2,6-dimethylphenoxy)-2-methylpropionic Acid], the pEC50 in assay [1] (setting [4]) is 7.69; in assay [2], 7.17; in assay [3] (setting [5]), 6.20.

In the case of `Cc1cc(CCN2C(=O)CN(c3ccc(C(F)(F)F)cc3)C2=O)cc(C)c1OC(C)(C)C(=O)O` [Compound 85, 2-(4-(2-(2,5-Dioxo-3-(4-(trifluoromethyl)phenyl)imidazolidin-1-yl)ethyl)-2,6-dimethylphenoxy)-2-methylpropionic Acid], the values for the pEC50 in assay [1] (setting [4]), in assay [2] and in assay [3] were 8.36, 7.75 and 5.57, respectively.

For the compound `CC(C)(Oc1ccc(CN2C(=O)CN(c3ccc(C(F)(F)F)cc3)C2=O)cc1)C(=O)O` [Compound 59, 2-(4-((2,5-Dioxo-3-(4-(trifluoromethyl)phenyl)imidazolin-1-yl)methyl)phenoxy)-2-methylpropionic Acid], the pEC50 in assay [1] (setting [4]) is 6.45; in assay [2], 6.56; in assay [3], under 5.30.

As to `Cc1cc(CCCN2CC(=O)N(c3ccc(C(F)(F)F)cc3)C2=O)cc(C)c1OC(C)(C)C(=O)O` [Compound 91, 2-(4-(3-(2,4-Dioxo-3-(4-(trifluoromethyl)phenyl)imidazolidin-1-yl)propyl)-2,6-dimethylphenoxy)-2-methylpropionic Acid], the pEC50 in assay [1] was 6.20; in assay [2], 7.42; in assay [3], 5.57.

As to `CCC(Oc1c(C)cc(CN2C(=O)CN(c3ccc(C(F)(F)F)cc3)C2=O)cc1C)C(=O)O` (stereo not shown) [Compound 67, 2-(4-((2,5-Dioxo-3-(4-(trifluoromethyl)phenyl)imidazolin-1-yl)methyl)-2,6-dimethylphenoxy)butyric Acid], the pEC50 in assay [1] is 8.47; in assay [2], 7.85; in assay [3] it was 5.72.

For the compound `Cc1cc(CCN2CC(=O)N(c3ccc(C(F)(F)F)cc3)C2=O)cc(C)c1OC(C)(C)C(=O)O` [Compound 87, 2-(4-(2-(2,4-Dioxo-3-(4-(trifluoromethyl)phenyl)imidazolin-1-yl)ethyl)-2,6-dimethylphenoxy)-2-methylpropionic Acid], the results for the pEC50 in assay [1], in assay [2] and in assay [3] were 6.45, 6.45 and 5.47, respectively.

Consider `Cc1cc(CN2C(=O)N(c3ccc(C(F)(F)F)cc3)C(=O)C2(C)C)cc(C)c1OC(C)(C)C(=O)O` [Compound 83], for which the pEC50 in assay [1] (setting [4]) was 8.19; in assay [2], 7.10; in assay [3] (setting [5]), 5.77.

As to `CC(C)(Oc1ccc(CN2C(=O)CN(c3ccc(C(F)(F)F)cc3)C2=O)cc1C(F)(F)F)C(=O)O` [Compound 11, 2-(4-((2,5-Dioxo-3-(4-(trifluoromethyl)phenyl)imidazolidin-1-yl)methyl)-2-(trifluoromethyl)phenoxy)-2-methylpropionic Acid], the pEC50 is 7.48 in assay [1], 7.11 in assay [2] and 5.60 in assay [3].

On to `Cc1cc(CN2C(=O)CN(c3cccc(Cl)c3)C2=O)cc(C)c1OC(C)(C)C(=O)O` [Compound 107], for which the pEC50 in assay [1] is 7.32; in assay [2], 6.98; in assay [3], 6.19.

As for `Cc1cc(CN2C(=O)CN(c3cccc(OC(F)(F)F)c3)C2=O)cc(C)c1OC(C)(C)C(=O)O` [Compound 109], the pEC50 in assay [1] is 7.82; in assay [2], 7.50; in assay [3], 6.44.

Consider `Cc1cc(CN2C(=O)CN(c3ccc(S(C)(=O)=O)cc3)C2=O)cc(C)c1OC(C)(C)C(=O)O` [Compound 71, 2-(2,6-Dimethyl-4-((3-(4-(methylsulfonyl)phenyl)-2,5-dioxoimidazolin-1-yl)methyl)phenoxy)-2-methylpropionic Acid], for which the pEC50 in assay [1] is under 5.30; in assay [2] it was 5.96; in assay [3], under 5.30.

In the case of `CCOc1ccc(N2CC(=O)N(Cc3cc(C)c(OC(C)(C)C(=O)O)c(C)c3)C2=O)cc1` [Compound 95], the negative logarithm of the EC50 (pEC50) in assay [1] is 7.17; in assay [2], 7.96; in assay [3] it was 5.88.

On to `Cc1cc(CN2C(=O)CN(c3ccc(C#N)cc3)C2=O)cc(C)c1OC(C)(C)C(=O)O` [Compound 37, 2-(4-((3-(4-Cyanobenzene)-2,5-dioxoimidazolin-1-yl)methyl)-2,6-dimethylphenoxy)-2-methylpropionic Acid], for which the pEC50 in assay [1] (setting [4]) is 7.07; in assay [2], 7.01; in assay [3] (setting [5]), 5.39.

`Cc1cc(CN2C(=O)CN(c3ccc(C=O)cc3)C2=O)cc(C)c1OC(C)(C)C(=O)O` [Compound 99]: the results for the negative logarithm of the EC50 (pEC50) in assay [1], in assay [2] and in assay [3] were under 5.30, 6.40 and under 5.30, respectively.

As to `Cc1cc(CN2C(=O)CN(c3ccc(-c4ccccc4)cc3)C2=O)cc(C)c1OC(C)(C)C(=O)O` [Compound 41], in assay [1] (setting [4]), the pEC50 is 8.21 and the “PPARδ EC50 (nM)” value is on record as “low nanomolar levels”. Further, in assay [2], the pEC50 is 9.05 and the “PPARα EC50 (nM)” value is “low nanomolar levels”. This compound showed a pEC50 in assay [3] (setting [5]) of 6.20.

On to `Cc1cc(CN2C(=O)CN(c3ccc(C(F)(F)F)cc3)C2=O)cc(C)c1OCC(=O)O` [Compound 53, 2-(4-((2,5-Dioxo-3-(4-(trifluoromethyl)phenyl)imidazolin-1-yl)methyl)-2,6-dimethylphenoxy)acetic Acid], for which the figures for the pEC50 in assay [1] (setting [4]), in assay [2] and in assay [3] were 6.76, 6.49 and under 5.30, respectively.

As to `COc1cc(CN2C(=O)CN(c3ccc(C(F)(F)F)cc3)C2=O)ccc1OC(C)(C)C(=O)O` [Compound 97], the pEC50 in assay [1] was 5.85; in assay [2] it was 6.68; in assay [3], 5.54.
